The results in this text go back to patent US10670605B2, “Cysteine reactive probes and uses thereof” (The Scripps Research Institute, priority 2015, dated 2020).

Holding throughout (test): Competitive isoTOP-ABPP in situ (fragment-treated cells)
Holding throughout (assay type): cell-based
Common to all, as to settings: 200 μM, insitu, 231

For test [1], the target named is T1, cysteines in MDA-MB-231 and Ramos cells (Homo sapiens, UniProt O75521).
T1 sequence (O75521 39-394): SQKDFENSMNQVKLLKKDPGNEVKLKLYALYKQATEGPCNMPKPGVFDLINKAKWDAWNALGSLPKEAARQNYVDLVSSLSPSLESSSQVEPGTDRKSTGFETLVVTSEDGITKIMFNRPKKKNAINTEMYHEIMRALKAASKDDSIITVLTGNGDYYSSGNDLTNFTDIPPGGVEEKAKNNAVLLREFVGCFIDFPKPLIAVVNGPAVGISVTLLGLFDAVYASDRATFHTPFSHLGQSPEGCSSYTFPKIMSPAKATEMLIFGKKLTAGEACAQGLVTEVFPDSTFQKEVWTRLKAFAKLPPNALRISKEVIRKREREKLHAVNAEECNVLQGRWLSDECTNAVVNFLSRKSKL

Test [2] has as its target T2, cysteines in MDA-MB-231 and Ramos cells (Homo sapiens, UniProt Q96S55).
T2 sequence (Q96S55 1-665): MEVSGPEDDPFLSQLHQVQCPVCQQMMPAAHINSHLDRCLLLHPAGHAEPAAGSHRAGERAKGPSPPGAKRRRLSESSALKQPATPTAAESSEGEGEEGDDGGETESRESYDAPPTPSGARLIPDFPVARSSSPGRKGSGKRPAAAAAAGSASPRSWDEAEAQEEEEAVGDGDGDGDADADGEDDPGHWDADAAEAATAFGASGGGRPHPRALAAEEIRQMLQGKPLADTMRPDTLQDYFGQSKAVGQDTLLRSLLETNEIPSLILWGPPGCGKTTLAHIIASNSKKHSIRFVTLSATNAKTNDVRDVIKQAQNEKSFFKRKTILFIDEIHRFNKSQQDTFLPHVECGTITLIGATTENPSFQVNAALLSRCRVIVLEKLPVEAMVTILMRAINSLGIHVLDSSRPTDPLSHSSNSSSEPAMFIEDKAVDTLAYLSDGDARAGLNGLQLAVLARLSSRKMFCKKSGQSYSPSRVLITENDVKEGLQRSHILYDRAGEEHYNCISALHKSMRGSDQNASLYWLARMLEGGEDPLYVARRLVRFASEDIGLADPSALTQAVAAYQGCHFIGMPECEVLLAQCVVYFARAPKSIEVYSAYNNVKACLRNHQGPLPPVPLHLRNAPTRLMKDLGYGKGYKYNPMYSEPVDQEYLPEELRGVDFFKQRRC

Test [3] deals with cysteines in MDA-MB-231 and Ramos cells (Homo sapiens, UniProt Q9Y696).
Chain of cysteines in MDA-MB-231 and Ramos cells (Homo sapiens, UniProt Q9Y696) (Q9Y696 whole entry): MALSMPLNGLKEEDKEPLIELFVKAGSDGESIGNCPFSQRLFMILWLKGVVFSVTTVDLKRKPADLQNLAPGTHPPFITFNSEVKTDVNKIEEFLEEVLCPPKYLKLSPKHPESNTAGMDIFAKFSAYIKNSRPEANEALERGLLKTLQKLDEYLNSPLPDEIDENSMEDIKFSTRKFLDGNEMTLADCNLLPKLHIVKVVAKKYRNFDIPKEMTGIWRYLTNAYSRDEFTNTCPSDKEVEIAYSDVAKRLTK
Test [4] addresses T3, cysteines in MDA-MB-231 and Ramos cells (Homo sapiens, UniProt P49588).
T3 sequence (P49588 1-968): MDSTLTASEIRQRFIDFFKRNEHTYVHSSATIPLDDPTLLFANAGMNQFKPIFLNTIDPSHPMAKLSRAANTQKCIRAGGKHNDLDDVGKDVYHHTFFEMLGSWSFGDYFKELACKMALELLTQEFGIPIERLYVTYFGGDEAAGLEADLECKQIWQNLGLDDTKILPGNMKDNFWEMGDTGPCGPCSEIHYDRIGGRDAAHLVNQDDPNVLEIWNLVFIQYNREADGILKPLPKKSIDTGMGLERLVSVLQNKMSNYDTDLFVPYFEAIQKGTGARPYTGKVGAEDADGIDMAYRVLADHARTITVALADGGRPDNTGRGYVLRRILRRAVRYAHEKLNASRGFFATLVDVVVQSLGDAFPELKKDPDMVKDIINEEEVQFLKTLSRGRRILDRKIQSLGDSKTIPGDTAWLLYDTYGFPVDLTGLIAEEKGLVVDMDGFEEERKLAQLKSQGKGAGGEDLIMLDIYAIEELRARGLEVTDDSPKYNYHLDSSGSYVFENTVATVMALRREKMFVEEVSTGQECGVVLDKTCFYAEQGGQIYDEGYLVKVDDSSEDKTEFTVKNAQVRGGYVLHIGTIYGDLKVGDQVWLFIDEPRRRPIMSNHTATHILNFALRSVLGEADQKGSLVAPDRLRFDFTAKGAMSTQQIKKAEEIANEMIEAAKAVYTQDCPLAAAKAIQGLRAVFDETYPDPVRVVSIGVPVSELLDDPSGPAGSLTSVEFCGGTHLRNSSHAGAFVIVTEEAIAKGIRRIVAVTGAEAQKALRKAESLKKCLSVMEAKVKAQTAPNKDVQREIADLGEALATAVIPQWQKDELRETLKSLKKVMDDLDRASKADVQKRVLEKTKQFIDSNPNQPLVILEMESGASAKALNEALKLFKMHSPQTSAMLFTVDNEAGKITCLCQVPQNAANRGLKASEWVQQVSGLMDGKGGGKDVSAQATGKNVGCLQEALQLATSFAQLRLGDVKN

Test [5] deals with T4, cysteines in MDA-MB-231 and Ramos cells (Homo sapiens, UniProt P25205).
T4 sequence (P25205 1-808): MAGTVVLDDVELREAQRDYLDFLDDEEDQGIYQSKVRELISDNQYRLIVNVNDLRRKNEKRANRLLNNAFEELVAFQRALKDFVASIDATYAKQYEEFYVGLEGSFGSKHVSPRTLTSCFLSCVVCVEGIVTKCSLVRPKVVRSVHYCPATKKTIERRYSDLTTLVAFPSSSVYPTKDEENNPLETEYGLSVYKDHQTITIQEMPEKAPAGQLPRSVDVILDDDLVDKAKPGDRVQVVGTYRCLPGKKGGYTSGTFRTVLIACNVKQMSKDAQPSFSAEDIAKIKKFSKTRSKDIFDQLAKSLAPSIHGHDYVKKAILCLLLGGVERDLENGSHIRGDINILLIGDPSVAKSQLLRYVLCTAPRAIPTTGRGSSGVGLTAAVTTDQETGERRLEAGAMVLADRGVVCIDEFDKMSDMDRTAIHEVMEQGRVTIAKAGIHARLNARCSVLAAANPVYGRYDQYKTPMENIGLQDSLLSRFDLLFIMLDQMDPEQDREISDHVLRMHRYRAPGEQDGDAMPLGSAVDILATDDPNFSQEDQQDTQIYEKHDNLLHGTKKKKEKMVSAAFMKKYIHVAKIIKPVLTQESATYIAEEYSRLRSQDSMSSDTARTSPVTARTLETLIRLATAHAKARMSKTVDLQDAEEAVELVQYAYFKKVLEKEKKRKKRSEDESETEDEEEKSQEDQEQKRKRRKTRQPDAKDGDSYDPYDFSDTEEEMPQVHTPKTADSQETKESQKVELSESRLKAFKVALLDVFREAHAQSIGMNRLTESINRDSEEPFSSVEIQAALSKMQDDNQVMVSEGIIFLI

As for `COc1cc2c(cc1OC)CN(C(=O)CCl)CC2` [compound 8], in test [1], the “isoTOP-ABPP reactivity O75521_C312 ECI2” value worked out at 0.5 and the “isoTOP-ABPP reactivity O75521_C380 ECI2” value stood at 0.8. Also, the “isoTOP-ABPP reactivity Q96S55_C272 WRNIP1” value in test [2] amounted to 1.2. Besides, the “isoTOP-ABPP reactivity Q9Y696_C35 CLIC4” value in test [3] worked out at 4.7. Also, the “isoTOP-ABPP reactivity P49588_C773 AARS” value in test [4] came out at 1.5. The “isoTOP-ABPP reactivity P25205_C119 MCM3” value in test [5] is 3.5.
